Patent US20190359609A1, “BICYCLIC OGA INHIBITOR COMPOUNDS” (Janssen Pharmaceutica NV, priority 2016, published 2019)

Molecular target: T1, recombinant human Meningioma Expressed Antigen 5 (MGEA5), also referred to as O-GlcNAcase (OGA) (Homo sapiens, UniProt O60502)
T1 construct: Full length OGA enzyme was purchased at OriGene (cat # TP322411); purchased OriGene TP322411
T1 sequence (O60502 1-916): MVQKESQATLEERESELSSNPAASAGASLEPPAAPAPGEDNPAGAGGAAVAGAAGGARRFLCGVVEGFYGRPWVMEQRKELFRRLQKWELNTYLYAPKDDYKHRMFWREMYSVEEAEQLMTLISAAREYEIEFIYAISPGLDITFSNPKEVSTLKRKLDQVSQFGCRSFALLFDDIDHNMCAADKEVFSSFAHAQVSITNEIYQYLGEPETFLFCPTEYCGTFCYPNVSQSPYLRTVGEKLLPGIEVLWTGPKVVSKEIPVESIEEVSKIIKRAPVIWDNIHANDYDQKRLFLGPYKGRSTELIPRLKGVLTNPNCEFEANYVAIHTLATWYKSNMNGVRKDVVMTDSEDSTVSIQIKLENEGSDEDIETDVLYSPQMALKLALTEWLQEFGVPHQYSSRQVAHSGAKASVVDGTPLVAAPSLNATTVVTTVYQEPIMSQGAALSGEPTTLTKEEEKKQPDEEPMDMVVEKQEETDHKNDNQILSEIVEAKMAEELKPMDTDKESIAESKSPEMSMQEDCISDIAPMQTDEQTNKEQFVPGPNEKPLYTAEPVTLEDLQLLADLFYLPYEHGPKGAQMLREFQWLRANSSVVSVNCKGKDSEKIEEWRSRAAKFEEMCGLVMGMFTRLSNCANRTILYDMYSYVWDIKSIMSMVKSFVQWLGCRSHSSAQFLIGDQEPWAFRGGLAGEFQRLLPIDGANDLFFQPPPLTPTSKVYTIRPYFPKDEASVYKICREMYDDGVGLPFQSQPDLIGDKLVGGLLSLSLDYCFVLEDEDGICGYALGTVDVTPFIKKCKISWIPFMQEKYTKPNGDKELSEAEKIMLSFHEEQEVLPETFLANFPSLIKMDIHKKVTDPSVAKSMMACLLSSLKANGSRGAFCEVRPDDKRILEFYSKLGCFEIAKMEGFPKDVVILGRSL
Assay: OGA biochemical assay: inhibition of FM-GlcNAc hydrolysis, fluorescence (protocol A 10 nM OGA, 1 h; protocol B 2 nM OGA, 6 h)
Settings: Enzymatic protocol A (10 nM OGA, 1 h); read-out: Enzymatic Emax (%)
Source text: The assay is based on the inhibition of the hydrolysis of fluorescein mono-B-D-N-Acetyl-Glucosamine (FM-GlcNAc) (Mariappa et al. 2015, Biochem J 470:255) by the recombinant human Meningioma Expressed Antigen 5 (MGEA5), also referred to as 0-GlcNAcase (OGA). The hydrolysis FM-GlcNAc (Marker Gene technologies, cat # M1485) results in the formation of β-D-N-glucosamineacetate and fluorescein. The fluorescence of the latter can be measured at excitation wavelength 485 nm and emission wavelength 538 nm. An increase in enzyme activity results in an increase in fluorescence signal. Full length OGA enzyme was purchased at OriGene (cat # TP322411). The enzyme was stored in 25 mM Tris.HCl, pH 7.3, 100 mM glycine, 10% glycerol at −20° C. Thiamet G and GlcNAcStatin were tested as reference compounds (Yuzwa et al. 2008 Nature Chemical Biology 4:483; Yuzwa et al. 2012 Nature Chemical Biology 8:393). The assay was performed in 200 mM Citrate/phosphate buffer supplemented with 0.005% Tween-20. 35.6 g Na2HPO4 2 H2O (Sigma, # C0759) were dissolved in 1 L water to obtain a 200 mM solution. 19.2 g citric acid (Merck, #1.06580) was dissolved in 1 L water to obtain a 100 mM solution. pH of the sodiumphosphate solution was adjusted with the citric acid solution to 7.2. The buffer to stop the reaction consists of a 500 mM Carbonate buffer, pH 11.0. 734 mg FM-GlcNAc were dissolved in 5.48 mL DMSO to obtain a 250 mM solution and was stored at −20° C. OGA was used at a 10 nM (protocol A) or 2 nM (protocol B) concentration and FM-GlcNAc at a 100 uM final concentration. Dilutions were prepared in assay buffer.
50 nl of a compound dissolved in DMSO was dispensed on Black Proxiplate™ 384 Plus Assay plates (Perkin Elmer, #6008269) and 3 μl fl-OGA enzyme mix added subsequently. Plates were pre-incubated for 60 min at room temperature and then 2 μl FM-GlcNAc substrate mix added. […] Plates were briefly centrifuged for 1 min at 1000 rpm and incubate at room temperature for 1 h (10 nM OGA, protocol A) or 6 h (2 nM OGA, protocol B). To stop the reaction 5 μl STOP buffer were added and plates centrifuge again 1 min at 1000 rpm. Fluorescence was quantified in the Thermo Scientific Fluoroskan Ascent or the PerkinElmer EnVision with excitation wavelength 485 nm and emission wavelength 538 nm.
For analysis a best-fit curve is fitted by a minimum sum of squares method. From this an IC50 value and Hill coefficient was obtained. High control (no inhibitor) and low control (saturating concentrations of standard inhibitor) were used to define the minimum and maximum values.

Emax | SMILES
101% | CC(=O)Nc1ncc(CN2CCCC(c3cc4cccnc4[nH]3)C2)s1 (stereo not drawn) [Compound 8]
98% | CCC(=O)Nc1ncc(CN2CCCC(c3cc4ncccc4[nH]3)C2)s1 (stereo not drawn) [Compound 9]
98% | CC(=O)Nc1ncc(CN2CCCC(c3nc4ncccc4n3C)C2)s1 (stereo not drawn) [Compound 20]
101% | CC(=O)Nc1ncc(CN2CCCC(c3nc4cccnc4n3C)C2)s1 (stereo not drawn) [Compound 21]
98.2% | c1cnc2cc(C3CCCN(Cc4ccc5c(c4)OCCO5)C3)[nH]c2c1 (stereo not drawn) [Compound 39]

Same assay, conditions: Enzymatic protocol A (10 nM OGA, 1 h); read-out: Enzymatic hOGA; pIC50 (converted)

IC50 | SMILES
112 nM | CC(=O)Nc1ncc(CN2CCCC(c3cc4cccnc4[nH]3)C2)s1 (stereo not drawn) [Compound 8]
204 nM | CCC(=O)Nc1ncc(CN2CCCC(c3cc4ncccc4[nH]3)C2)s1 (stereo not drawn) [Compound 9]
155 nM | CC(=O)Nc1ncc(CN2CCCC(c3nc4ncccc4n3C)C2)s1 (stereo not drawn) [Compound 20]
302 nM | CC(=O)Nc1ncc(CN2CCCC(c3nc4cccnc4n3C)C2)s1 (stereo not drawn) [Compound 21]
617 nM | c1cnc2cc(C3CCCN(Cc4ccc5c(c4)OCCO5)C3)[nH]c2c1 (stereo not drawn) [Compound 39]

Same assay, conditions: Enzymatic protocol B (2 nM OGA, 6 h); read-out: Enzymatic Emax (%)

Emax | SMILES
100% | CC(=O)Nc1ncc(CN2CCCC(c3cc4cccnc4[nH]3)C2)s1 (stereo not drawn) [Compound 8]

Same assay, conditions: Enzymatic protocol B (2 nM OGA, 6 h); read-out: Enzymatic hOGA; pIC50 (converted)

IC50 | SMILES
105 nM | CC(=O)Nc1ncc(CN2CCCC(c3cc4cccnc4[nH]3)C2)s1 (stereo not drawn) [Compound 8]

System: not given
Assay: not given
Settings: not given

melting point | SMILES
235 °C | CCC(=O)Nc1ncc(CN2CCCC(c3cc4ncccc4[nH]3)C2)s1 (stereo not drawn) [Compound 9]

Molecular target: T2, OGA (Homo sapiens, UniProt O60502)
T2 construct: endogenous in cells; host or cells: HEK293 cells inducible for P301L mutant human Tau (2N4R)
T2 sequence (O60502 1-916): T1 sequence (O60502 1-916)
Assay: OGA cellular assay: ICC detection of O-GlcNAcylated proteins in HEK293 cells inducible for P301L mutant human Tau
Type: cell-based
Settings: 6 hours incubation
Description: HEK293 cells inducible for P301L mutant human Tau (isoform 2N4R) were established at Janssen. Thiamet-G was used for both plate validation (high control) and as reference compound (reference EC50 assay validation). OGA inhibition is evaluated through the immunocytochemical (ICC) detection of O-GlcNAcylated proteins by the use of a monoclonal antibody (CTD110.6; Cell Signaling, #9875) detecting O-GlcNAcylated residues as previously described (Dorfmueller et al. 2010 Chemistry & biology, 17:1250).
Inhibition of OGA will result in an increase of 0-GlcNAcylated protein levels resulting in an increased signal in the experiment. Cell nuclei are stained with Hoechst to give a cell culture quality control and a rough estimate of immediate compounds toxicity, if any. ICC pictures are imaged with a Perkin Elmer Opera Phenix plate microscope and quantified with the provided software Perkin Elmer Harmony 4.1.
Cells were propagated in DMEM high Glucose (Sigma, #D5796) following standard procedures. 2 days before the cell assay cells are split, counted and seeded in Poly-D-Lysine (PDL) coated 96-wells (Greiner, #655946) plate at a cell density of 12,000 cells per cm^2 (4,000 cells per well) in 100 μl of Assay Medium (Low Glucose medium is used to reduce basal levels of GlcNAcylation) (Park et al. 2014 The Journal of biological chemistry 289:13519). At the day of compound test medium from assay plates was removed and replenished with 90 μl of fresh Assay Medium. 10 μl of compounds at a 10fold final concentration were added to the wells. Plates were centrifuged shortly before incubation in the cell incubator for 6 hours. DMSO concentration was set to 0.2%. Medium is discarded by applying vacuum. For staining of cells medium was removed and cells washed once with 100 μl D-PBS (Sigma, #D8537). From next step onwards unless other stated assay volume was always 50 μl and incubation was performed without agitation and at room temperature. Cells were fixed in 50 μl of a 4% paraformaldehyde (PFA, Alpha aesar, #043368) PBS solution for 15 minutes at room temperature. […] Before analysis samples were washed 2 times manually for 5 minutes in ICC base buffer.
Imaging is performed using Perkin Elmer Phenix Opera using a water 20× objective and recording 9 fields per well. Intensity readout at 488 nm is used as a measure of O-GlcNAcylation level of total proteins in wells. To assess potential toxicity of compounds nuclei were counted using the Hoechst staining. IC50-values are calculated using parametric non-linear regression model fitting. As a maximum inhibition Thiamet G at a 200 uM concentration is present on each plate. In addition, a concentration response of Thiamet G is calculated on each plate.

Emax | SMILES
113% | CC(=O)Nc1ncc(CN2CCCC(c3cc4cccnc4[nH]3)C2)s1 (stereo not drawn) [Compound 8]
95.6% | CC(=O)Nc1ncc(CN2CCCC(c3nc4ncccc4n3C)C2)s1 (stereo not drawn) [Compound 20]
101% | CC(=O)Nc1ncc(CN2CCCC(c3nc4cccnc4n3C)C2)s1 (stereo not drawn) [Compound 21]
90.3% | c1cnc2cc(C3CCCN(Cc4ccc5c(c4)OCCO5)C3)[nH]c2c1 (stereo not drawn) [Compound 39]

Same assay, conditions: 6 hours incubation, read-out: Cellular hOGA, pEC50 (converted)

EC50 | SMILES
148 nM | CC(=O)Nc1ncc(CN2CCCC(c3cc4cccnc4[nH]3)C2)s1 (stereo not drawn) [Compound 8]
2630 nM | CC(=O)Nc1ncc(CN2CCCC(c3nc4ncccc4n3C)C2)s1 (stereo not drawn) [Compound 20]
2630 nM | CC(=O)Nc1ncc(CN2CCCC(c3nc4cccnc4n3C)C2)s1 (stereo not drawn) [Compound 21]
3630 nM | c1cnc2cc(C3CCCN(Cc4ccc5c(c4)OCCO5)C3)[nH]c2c1 (stereo not drawn) [Compound 39]
